In ChEMBL document CHEMBL3217589, “Spiro[[1]benzothiophen-4,4-piperidines] carba analogs of potent 1 ligands” (Medchemcomm, 2013):

Columns and labels:
[1] = target: Sigma non-opioid intracellular receptor 1 (Cavia porcellus, UniProt Q60492); assay: Displacement of [3H]-(+)-pentazocine from sigma-1 receptor in guinea pig brain cortex after 120 mins by scintillation counting analysis; format: tissue-based, Cerebral cortex
[2] = Selectivity ratio of Ki for rat liver membrane sigma-2 receptor to Ki for guinea pig brain cortex sigma-1 receptor
[3] = Displacement of [3H]-di-o-tolylguanidine from sigma-2 receptor in rat liver membranes after 120 mins by scintillation counting analysis; format: cell membranes, Membrane
[4] = target: Sigma non-opioid intracellular receptor 1 (Homo sapiens, UniProt Q99720); assay: Binding affinity to sigma-1 receptor (unknown origin)
Sigma non-opioid intracellular receptor 1 (Homo sapiens, UniProt Q99720), sequence (Q99720 whole entry): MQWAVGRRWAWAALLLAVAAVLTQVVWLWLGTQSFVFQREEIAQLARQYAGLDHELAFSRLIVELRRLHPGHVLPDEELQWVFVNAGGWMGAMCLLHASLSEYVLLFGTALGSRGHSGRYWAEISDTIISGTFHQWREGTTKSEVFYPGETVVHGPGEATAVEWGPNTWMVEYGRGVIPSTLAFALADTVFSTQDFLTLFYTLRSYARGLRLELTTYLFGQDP

Sigma non-opioid intracellular receptor 1 (Cavia porcellus, UniProt Q60492), sequence (Q60492 whole entry): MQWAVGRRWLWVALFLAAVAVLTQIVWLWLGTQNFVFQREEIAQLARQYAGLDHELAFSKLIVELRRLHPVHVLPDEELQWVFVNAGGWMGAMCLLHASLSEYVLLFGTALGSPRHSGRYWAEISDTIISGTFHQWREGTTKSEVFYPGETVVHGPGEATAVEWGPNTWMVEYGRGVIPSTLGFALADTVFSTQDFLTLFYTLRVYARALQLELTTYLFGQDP

Compound	Ki [1]	Ratio Ki [2]	Ki [3]	Ki [4]
CN(C)CCC1OCCc2c1cnn2-c1ccccc1 (stereo not given)				24 nM
CCCCN1CCC2(CCCc3sccc32)CC1	6.3 nM	8	48 nM	
c1cc2c(s1)CCCC21CCN(CC2CCCCC2)CC1	4.3 nM	5	23 nM	
c1ccc(N2CCN(CCC3OCCc4c3cnn4-c3ccccc3)CC2)cc1 (stereo not given)				2.9 nM

Next, values leading:

Ki [1]	Ratio Ki [2]	Ki [3]	Ki [4]	Compound
277 nM	0.4	105 nM		c1ccc(CCN2CCC3(CCCc4sccc43)CC2)cc1
46 nM	4	186 nM		c1ccc(CCCN2CCC3(CCCc4sccc43)CC2)cc1
10.5 nM	16	172 nM		c1ccc(CN2CCC3(CCCc4sccc43)CC2)cc1
29 nM	4	130 nM		c1ccc(CN2CCC3(CCCc4sccc43)C2)cc1 (stereo not given)
